In BigSolDB 2.1:

Compound `COC(=O)/C=C/c1ccc(O)c(OC)c1` has a solubility (mole fraction) (in ethyl acetate, 303.15 K) of 0.217, a solubility (mole fraction) (in ethyl acetate, 307.15 K) of 0.247 and a solubility (mole fraction) (in ethyl acetate, 312.15 K) of 0.279. It also gave a solubility (mole fraction) (in ethyl acetate, 317.15 K) of 0.305, a solubility (mole fraction) (in ethyl acetate, 321.15 K) of 0.334 and a solubility (mole fraction) (in n-hexane, 303.15 K) of 0.00112. The solubility (mole fraction) (in n-hexane, 307.15 K) was 0.00211, the solubility (mole fraction) (in n-hexane, 312.15 K) was 0.00251 and the solubility (mole fraction) (in n-hexane, 317.15 K) was 0.00354. It also gave a solubility (mole fraction) (in n-hexane, 321.15 K) of 0.00416, a solubility (mole fraction) (in tert-amyl alcohol, 303.15 K) of 0.215 and a solubility (mole fraction) (in tert-amyl alcohol, 307.15 K) of 0.246. The solubility (mole fraction) (in tert-amyl alcohol, 312.15 K) was 0.287, the solubility (mole fraction) (in tert-amyl alcohol, 317.15 K) was 0.312 and the solubility (mole fraction) (in tert-amyl alcohol, 321.15 K) was 0.342. The solubility (mole fraction) (in tert-butanol, 303.15 K) was 0.182, the solubility (mole fraction) (in tert-butanol, 307.15 K) was 0.209 and the solubility (mole fraction) (in tert-butanol, 312.15 K) was 0.247. For the same compound, the solubility (mole fraction) (in tert-butanol, 317.15 K) was 0.295 and the solubility (mole fraction) (in tert-butanol, 321.15 K) was 0.325.
Work on `COC(=O)/C=C/c1cc(OC)c(O)c(OC)c1` yielded a solubility (mole fraction) (in ethyl acetate, 303.15 K) of 0.117, a solubility (mole fraction) (in ethyl acetate, 307.15 K) of 0.128 and a solubility (mole fraction) (in ethyl acetate, 312.15 K) of 0.147. For the same compound, the solubility (mole fraction) (in ethyl acetate, 317.15 K) was 0.157, the solubility (mole fraction) (in ethyl acetate, 321.15 K) was 0.168 and the solubility (mole fraction) (in n-hexane, 303.15 K) was 0.000292. The solubility (mole fraction) (in n-hexane, 307.15 K) was 0.000383, the solubility (mole fraction) (in n-hexane, 312.15 K) was 0.000495 and the solubility (mole fraction) (in n-hexane, 317.15 K) was 0.000743. For the same compound, the solubility (mole fraction) (in n-hexane, 321.15 K) was 0.000804, the solubility (mole fraction) (in tert-amyl alcohol, 303.15 K) was 0.0264 and the solubility (mole fraction) (in tert-amyl alcohol, 307.15 K) was 0.0336. It also gave a solubility (mole fraction) (in tert-amyl alcohol, 312.15 K) of 0.0644, a solubility (mole fraction) (in tert-amyl alcohol, 317.15 K) of 0.0926 and a solubility (mole fraction) (in tert-amyl alcohol, 321.15 K) of 0.14. For the same compound, the solubility (mole fraction) (in tert-butanol, 303.15 K) was 0.0184, the solubility (mole fraction) (in tert-butanol, 307.15 K) was 0.0234 and the solubility (mole fraction) (in tert-butanol, 312.15 K) was 0.0523. It also gave a solubility (mole fraction) (in tert-butanol, 317.15 K) of 0.0743 and a solubility (mole fraction) (in tert-butanol, 321.15 K) of 0.0973.
Compound `COC(=O)/C=C/c1ccc(O)cc1` has a solubility (mole fraction) (in ethyl acetate, 303.15 K) of 0.0856, a solubility (mole fraction) (in ethyl acetate, 307.15 K) of 0.0915 and a solubility (mole fraction) (in ethyl acetate, 312.15 K) of 0.0997. It also gave a solubility (mole fraction) (in ethyl acetate, 317.15 K) of 0.108, a solubility (mole fraction) (in ethyl acetate, 321.15 K) of 0.113 and a solubility (mole fraction) (in n-hexane, 303.15 K) of 2.81e-05. The solubility (mole fraction) (in n-hexane, 307.15 K) was 4.38e-05, the solubility (mole fraction) (in n-hexane, 312.15 K) was 6.18e-05 and the solubility (mole fraction) (in n-hexane, 317.15 K) was 8.13e-05. It also gave a solubility (mole fraction) (in n-hexane, 321.15 K) of 0.000124, a solubility (mole fraction) (in tert-amyl alcohol, 303.15 K) of 0.116 and a solubility (mole fraction) (in tert-amyl alcohol, 307.15 K) of 0.126. It also gave a solubility (mole fraction) (in tert-amyl alcohol, 312.15 K) of 0.154, a solubility (mole fraction) (in tert-amyl alcohol, 317.15 K) of 0.174 and a solubility (mole fraction) (in tert-amyl alcohol, 321.15 K) of 0.201. It also gave a solubility (mole fraction) (in tert-butanol, 303.15 K) of 0.0977, a solubility (mole fraction) (in tert-butanol, 307.15 K) of 0.113 and a solubility (mole fraction) (in tert-butanol, 312.15 K) of 0.128. The solubility (mole fraction) (in tert-butanol, 317.15 K) was 0.143 and the solubility (mole fraction) (in tert-butanol, 321.15 K) was 0.171.
